Experimental data reported in patent US20130165489A1, “Small Molecule Modulators of HIV-1 Capsid Stability and Methods Thereof” (The Trustees of the University of Pennsylvania, priority 2010, published 2013).

Key:
[1] = system: HIV-1 G3 (subtype G clinical isolate); assay: Anti-HIV efficacy in human PBMCs, isolate G3; type: cell-based
Protocol: HIV human peripheral blood mononuclear cell (PBMC) assays were performed as described previously (Lanier et al., 2010, Antimicrob. Agents Chemother. 54:2901-09; Ptak et al., 2008, Antimicrob. Agents Chemother. 52:1302-17). Briefly, fresh PBMCs, seronegative for HIV and hepatitis B virus (HBV), were isolated from blood samples of the screened donors (Biological Specialty Corporation, Colmar, Pa.) by using lymphocyte separation medium (LSM; density, 1.078±0.002 g/ml; Cellgro; Mediatech, Inc.) by following the manufacturer's instructions. Cells were stimulated by incubation in 4 μg/mL phytohemagglutinin (PHA; Sigma) for 48 to 72 h. Mitogenic stimulation was maintained by the addition of 20 U/mL recombinant human interleukin-2 (rhIL-2; R&D Systems, Inc.) to the culture medium. PHA-stimulated PBMCs from at least two donors were pooled, diluted in fresh medium, and added to 96-well plates at 5×10^4 cells/well. Cells were infected (final multiplicity of infection [MOI] of ≅0.1) in the presence of 9 different concentrations of test compounds (triplicate wells/concentration) and incubated for 7 days. […] Following removal of supernatant samples, compound cytotoxicity was measured by the addition of 3-(4,5-dimethylthiazol-2-yl)-5-(3-carboxymethoxyphenyl)-2-(4-sulfophenyl)-2H-tetrazolium (MTS; CellTiter 96 reagent; Promega) by following the manufacturer's instructions. […]

HIV-1NL4-3 CA [2] = molecular target: T1, HIV-1NL4-3 CA (Human immunodeficiency virus type 1 group M subtype B, UniProt P12493); assay: Surface plasmon resonance direct binding to HIV-1 CA
Protocol: Interaction analyses were performed on a Biacore 3000 optical biosensor (Biacore, Piscataway Township, NJ) with simultaneous monitoring of two flow cells Immobilization of the CA protein to CM7 sensor chips was performed following the standard amine coupling procedure according to the manufacturer's specifications. Briefly, carboxyl groups on the sensor chip surface were activated by injection of 50 μL of a solution containing 0.2 M EDC (1-ethyl-3-[3-dimethylamino-propyl]carbodiimide hydrochloride) and 0.05 M NHS(N-hydroxysuccinimide) at a flow rate of 5 μL min^−1. Next, the 50 μL of CA protein at a concentration of 6 μM in pH 5.0, 10 mM sodium acetate buffer was passed over the chip surface at 25° C. at a flow rate of 5 μL min^−1 Then, after unreacted protein had been washed out, excess active ester groups on the sensor surface were capped by the injection of 50 μL of 1 M ethanolamine (pH 8.0) at a flow rate of 5 μL min^−1. A reference surface with the nonspecific anti-gp120 antibody 17b (Thali et al., 1993, J. Virol. 67:3978-88) immobilized was generated at the same time under the same conditions and was used as background to correct nonspecific binding and for instrument and buffer artifacts.
Stock solutions of CMPD-E and CMPD-F were prepared by dissolving the compounds in 100% dimethyl sulfoxide (DMSO) to a final concentration of 10 mM. To prepare the sample for analysis, 30 μL of the compound stock solution was added to sample preparation buffer (25 mM Tris-HCl, 150 mM NaCl, pH 7.5) to a final volume of 1 mL and mixed thoroughly. Preparation of analyte in this manner ensured that the concentration of DMSO was matched with that of running buffer with 3% DMSO. Lower concentrations of each compound were then prepared by twofold serial dilutions into running buffer (25 mM Tris-HCl, 150 mM NaCl, 3% DMSO, pH 7.5). These compound dilutions were then injected over the control and CA surfaces at a flow rate of 50 μL min^−1, for a 2-min association phase, followed by a 5-min dissociation phase. […]

HIV-1NL4-3 CA [3] = molecular target: T1, HIV-1NL4-3 CA; assay: Isothermal titration calorimetry; type: binding
Protocol: Isothermal titration calorimetric experiments were performed at 10, 15, and 25° C. using a high-precision ITC200 titration calorimetric system from MicroCal LLC (Northampton, Mass.). All titrations were performed by adding CMPD-E in steps of […]. All solutions contained within the calorimetric cell and injector syringe were prepared in the same buffer, 25 mM Tris-HCl, pH 7.5 with 150 mM NaCl and 3% DMSO. The concentrations of CA and CMPD-E were 35 and 600 μM, respectively. The heat evolved upon injection of CMPD-E was obtained from the integral of the calorimetric signal. The heat associated with the binding reaction was obtained by subtracting the heat of dilution from the heat of reaction. The individual heats were plotted against the molar ratio, and the values for the number of binding sites (n), the enthalpy change (ΔH) and dissociation constant (KD=1/KA) were obtained by nonlinear regression of the data.

`O=C(O)c1ccc(-c2nc(-c3ccccc3)c(-c3ccccc3)[nH]2)cc1` [CMPD-E, 4-(4,5-diphenyl-1H-imidazol-2-yl)benzoic acid] was tested, and the IC50 ([1]; Human immunodeficiency virus 1, PBMC) was 9.03 µM, the “Antiviral index (TC50/IC50)” value ([1]; PBMC) was over 11.1 and the Kd (HIV-1NL4-3 CA [2]) was 66.3 ± 4.8 µM. The “interaction with sensor-chip immobilized HIV-1 CA” value (HIV-1NL4-3 CA [2]; SPR) was “directly interacted”, the Kd (HIV-1NL4-3 CA [3]) was 85 µM and the “change in Gibbs energy” value (HIV-1NL4-3 CA [3]; ITC, 25° C.) was -6.6 kcal/mol. The “change in enthalpy (ΔH)” value (HIV-1NL4-3 CA [3]; ITC, 25° C.) was -7.3 kcal/mol, the “change in entropy (ΔS)” value (HIV-1NL4-3 CA [3]; ITC, 25° C.) was −5.0 cal/(K×mol) and the heat capacity change (HIV-1NL4-3 CA [3]; from temperature dependence of the enthalpy) was −220 cal/(K×mol).
